Experimental data from patent US20260234146A1, “Use of Hypoxia-Inducible Factor-Prolyl Hydroxylase Inhibitor (HIF-PHI) in Rare Anemia” (Kind Pharmaceutical, priority 2023, published 2026).
Marks after values point to notes of the source that are not given here.

Key:
[1] = test system: Hbb^d3th/d3th mice; assay: Effect on homozygous β-thalassemia mice (CBC analysis); format: in vivo; parameters: HGB Hemoglobin content: unit not given here
Experimental: Throughout the experimental stage, animals were housed in cages in an animal room with 24-hour continuous central air conditioning, temperature set at 20-26° C., relative air humidity set at 40-70%, and a 12-hour light/dark cycle. All animals had free access to food (irradiated sterile feed) and water (prepared by an ultrapure water system). The mouse strain used in the experiment was: Hbb^d3th/d3th mice; female and male, 9-15 weeks old, weighing 25-30 grams. The breeding method involved one male paired with two females. Male mice with the Hbb^d3th/d3th genotype, and female mice with the Hbb^d3th/+ genotype were selected. At one week of age, tissue DNA was extracted from toe clips of offspring. Subsequently, PCR amplification and agarose gel electrophoresis for band separation were used for genotyping. Before the experiment, secondary genotyping was performed on mice of appropriate age, and mice with no significant differences in body weight and appearance were selected as experimental animals. Vehicle 1 (0.1 M meglumine aqueous solution) was prepared by dissolving an appropriate amount of meglumine (0.586 g) in an appropriate amount of deionized water (30 mL) with stirring to prepare the vehicle. After preparation, the vehicle was aliquoted into daily doses and stored at 5±3° C. Before administration, it was stirred at room temperature for at least 10 minutes and stirred continuously during the dosing process.
Comp-1: The required amount of Comp-1 was weighed, completely dissolved in an appropriate volume of Vehicle 1, with stirring and sonicating to form a solution. After visually observing dissolution, vehicle was gradually added to reach the specified volume. Before daily dosing, the formulations (including vehicle) were removed from refrigerator and allowed to reach room temperature. Formulations were stirred at room temperature for at least 10 minutes before administration and stirred throughout the dosing process. The route of administration was oral gavage for all groups, with a dosing volume of 10 mL/kg for all groups, and a dosing frequency of daily for a total of 42 days.
On days 0, 15, 29, and 43 of dosing, 50 μl of blood was collected from orbit of mice, stored at 4° C., and allowed to return to room temperature before analysis. Samples were then gently mixed and added to pre-prepared diluent (blood:diluent=1:6). Data were obtained using the instrument's pre-dilution mode for detection. Data statistics were processed and analyzed using Microsoft Office Excel (Microsoft Corporation, version 2013, Redmond, WA, USA) and GraphPad Prism 7.0. Red blood cell counts and percentages were reported with two significant FIGURES. T-test analysis was used for comparisons of blood cell counts and percentages between groups and within groups at different time points.

[2] = test system: MDS model mice; assay: Effect on MDS model mice (RBC, Hb, HCT); format: in vivo, C57 mice
Experimental: Throughout the experimental stage, animals were housed in cages in an animal room with 24-hour continuous central air conditioning, temperature set at 20-26° C., relative air humidity set at 40-70%, and a 12-hour light/dark cycle. All animals had free access to food and sterilized drinking water. The C57 mice used in the experiment contained three knocked-in genes in their genome: Vav1-Cre, LSL, and c-Myc(T58A/S62E). Only animals positive for all three genes were used in the experiment. Expression of Vav1-Cre can induce cleavage at the LSL site, thereby allowing tTA gene expression. After induction with Doxycycline, tTA can bind to promoter of the c-Myc(T58A/S62E) gene, driving its expression, so that the animals develop an MDS phenotype. When the mice reached approximately 8 weeks of age, modeling commenced. They were fed a special diet (containing 200 mg doxycycline per kg of feed) for 4 weeks. Mice were anesthetized on days 0, 14, and 28, and 70 μl of blood was collected from the orbit to measure RBC, Hb, and HCT levels, confirming successful establishment of the MDS model. Subsequently, the mice were randomly divided into 3 groups, with 10 mice per group: Vehicle control group (0.1 M meglumine), Comp-1 low-dose group (10 mg/kg), and Comp-1 high-dose group (30 mg/kg). The dosing or vehicle volume was 6.67 mL/kg. The dosing or vehicle frequency for each group was oral gavage three times per week (TIW) for 4 consecutive weeks. That is, from week 4 to week 8 constituted the treatment period. Mice were anesthetized 14 days (experimental week 6) and 28 days (experimental week 8) after the start of dosing, and 70 μl of blood was collected from the orbit. Collected blood samples were placed in heparin-anticoagulant tubes, and RBC, Hb, and HCT levels in the blood were measured. After blood collection at the final time point for each animal, the animals were euthanized, and corresponding organ tissues were collected for storage and potential future use. Detection instrument: Element HT5 Veterinary Hematology Analyzer; Supplier: HESKA. Data analysis was performed using GraphPad Prism 9.0.

[3] = test system: Townes SCD model mouse; assay: Effect on SCD anemia mice (RBC, Hb, HCT); format: in vivo
Experimental: Throughout the experimental stage, animals were housed in cages in an animal room with 24-hour continuous central air conditioning, temperature set at 20-26° C., relative air humidity set at 40-70%, and a 12-hour light/dark cycle. All animals had free access to food and sterilized drinking water. The animal strain was B6·Cg-Hbb^tm2(HBG1,HBB)Tow/Hbat^ml(HBA)Tow/ShmtJ mice, a Townes SCD model mouse where mouse endogenous hemoglobin is replaced by knocked-in human hemoglobin. Two weeks after birth, mice were ear-punched for identification, and the ear tissue was collected for PCR analysis to determine its genotype. Mice confirmed as B6·Cg-Hbb^tm2(HBG1,HBB)Tow/Hbat^ml(HBA)Tow/ShmtJ were grouped. […] Blood sampling was performed every other week. Mice showing symptoms of anemia were selected for dosing. Animals were randomly divided into groups, 6 animals per group: Vehicle control group (0.1 M meglumine aqueous solution; oral gavage; volume: 6.67 mL/kg), Comp-1 group (30 mpk; oral gavage; volume: 6.67 mL/kg), and EPO group (50 U/30 g body weight; SC injection; MyBioSource, cat. #: MBS650094, erythropoietin alpha). Dosing was administered three times a week (TIW) for 4 consecutive weeks. On days 14 and 28 of dosing, 70 μL of blood was collected from orbit. Collected blood samples were placed in heparin-anticoagulant tubes. 15 μL of the blood sample from the anticoagulant tube was aspirated and added to an Element HT5 Veterinary Hematology Analyzer. RBC, Hb, and HCT in the blood were measured according to the instrument's operating instructions. Data analysis was performed using GraphPad Prism 9.0. […]

[4] = 10 mg/kg group, Before dosing Week 4
[5] = 10 mg/kg group, Pre-modeling Week 0
[6] = 10 mg/kg oral TIW, After 2 weeks of dosing Week 6
[7] = 10 mg/kg oral TIW, After 4 weeks of dosing Week 8
[8] = 30 mg/kg group, Before dosing Week 4
[9] = 30 mg/kg group, Pre-modeling Week 0
[10] = 30 mg/kg oral TIW, After 2 weeks of dosing Week 6
[11] = 30 mg/kg oral TIW, After 4 weeks of dosing Week 8
[12] = 30 mg/kg group, Before dosing Week 0
[13] = 30 mg/kg oral TIW, After 2 weeks of dosing Week 2
[14] = 30 mg/kg oral TIW, After 4 weeks of dosing Week 4

O=C(O)CNC(=O)C1=C(O)C2(CCCC2)n2c(ccc2-c2ccccc2)C1=O [Comp-1, (6′-hydroxy-8′-oxo-3′-phenyl-8′H-spiro[cyclopentane-1,5′-indolizine]-7′-carbonyl)glycine]
HCT Hematocrit ([1]; 5 mpk group, Day 0 (pre-dose)): 27.58% | HGB Hemoglobin content ([1]; 5 mpk group, Day 0 (pre-dose)): 74.60 | RBC Red Blood Cell Count ([1]; 5 mpk group, Day 0 (pre-dose)): 7.90 10^12/L | HCT Hematocrit ([1]; 5 mpk oral daily, Day 15): 31.16# % | HGB Hemoglobin content ([1]; 5 mpk oral daily, Day 15): 81.20 | RBC Red Blood Cell Count ([1]; 5 mpk oral daily, Day 15): 8.35 10^12/L | HCT Hematocrit ([1]; 5 mpk oral daily, Day 29): 32.10## % | HGB Hemoglobin content ([1]; 5 mpk oral daily, Day 29): 83.00 | RBC Red Blood Cell Count ([1]; 5 mpk oral daily, Day 29): 8.59 10^12/L | HCT Hematocrit ([1]; 5 mpk oral daily, Day 43): 31.04## % | HGB Hemoglobin content ([1]; 5 mpk oral daily, Day 43): 80.20 | RBC Red Blood Cell Count ([1]; 5 mpk oral daily, Day 43): 8.58 10^12/L | HCT Hematocrit ([1]; 10 mpk group, Day 0 (pre-dose)): 26.20% | HGB Hemoglobin content ([1]; 10 mpk group, Day 0 (pre-dose)): 74.80 | RBC Red Blood Cell Count ([1]; 10 mpk group, Day 0 (pre-dose)): 7.90 10^12/L | HCT Hematocrit ([1]; 10 mpk oral daily, Day 15): 31.92## % | HGB Hemoglobin content ([1]; 10 mpk oral daily, Day 15): 83.60 | RBC Red Blood Cell Count ([1]; 10 mpk oral daily, Day 15): 8.60## 10^12/L | HCT Hematocrit ([1]; 10 mpk oral daily, Day 29): 33.02## % | HGB Hemoglobin content ([1]; 10 mpk oral daily, Day 29): 88.04 | RBC Red Blood Cell Count ([1]; 10 mpk oral daily, Day 29): 9.15# 10^12/L | HCT Hematocrit ([1]; 10 mpk oral daily, Day 43): 33.36### % | HGB Hemoglobin content ([1]; 10 mpk oral daily, Day 43): 89.40 | RBC Red Blood Cell Count ([1]; 10 mpk oral daily, Day 43): 9.30## 10^12/L | HCT Hematocrit ([1]; 15 mpk group, Day 0 (pre-dose)): 27.48% | HGB Hemoglobin content ([1]; 15 mpk group, Day 0 (pre-dose)): 75.00 | RBC Red Blood Cell Count ([1]; 15 mpk group, Day 0 (pre-dose)): 7.77 10^12/L | HCT Hematocrit ([1]; 15 mpk oral daily, Day 15): 34.50## % | HGB Hemoglobin content ([1]; 15 mpk oral daily, Day 15): 90.17 | RBC Red Blood Cell Count ([1]; 15 mpk oral daily, Day 15): 8.95# 10^12/L | HCT Hematocrit ([1]; 15 mpk oral daily, Day 29): 36.13### % | HGB Hemoglobin content ([1]; 15 mpk oral daily, Day 29): 97.5 | RBC Red Blood Cell Count ([1]; 15 mpk oral daily, Day 29): 9.72#### 10^12/L | HCT Hematocrit ([1]; 15 mpk oral daily, Day 43): 36.10#### % | HGB Hemoglobin content ([1]; 15 mpk oral daily, Day 43): 94.83 | RBC Red Blood Cell Count ([1]; 15 mpk oral daily, Day 43): 9.45#### 10^12/L | HCT Hematocrit [2, 4]: 28.12% | Hb Hemoglobin content [2, 4]: 9.52 g/dL | RBC Red Blood Cell Count [2, 4]: 6.03 M/μL | HCT Hematocrit [2, 5]: 43.35% | Hb Hemoglobin content [2, 5]: 14.90 g/dL | RBC Red Blood Cell Count [2, 5]: 9.00 M/μL | HCT Hematocrit [2, 6]: 34.36% | Hb Hemoglobin content [2, 6]: 10.97 g/dL | RBC Red Blood Cell Count [2, 6]: 6.33 M/μL | HCT Hematocrit [2, 7]: 37.52% | Hb Hemoglobin content [2, 7]: 11.77 g/dL | RBC Red Blood Cell Count [2, 7]: 7.17 M/μL | HCT Hematocrit [2, 8]: 28.01% | Hb Hemoglobin content [2, 8]: 9.54 g/dL | RBC Red Blood Cell Count [2, 8]: 5.90 M/μL | HCT Hematocrit [2, 9]: 43.32% | Hb Hemoglobin content [2, 9]: 14.37 g/dL | RBC Red Blood Cell Count [2, 9]: 9.01 M/μL | HCT Hematocrit [2, 10]: 43.13% | Hb Hemoglobin content [2, 10]: 13.56 g/dL | RBC Red Blood Cell Count [2, 10]: 7.11 M/μL | HCT Hematocrit [2, 11]: 47.41% | Hb Hemoglobin content [2, 11]: 14.91 g/dL | RBC Red Blood Cell Count [2, 11]: 8.46 M/μL | Arithmetic mean of HCT hematocrit [3, 12]: 27.20% | Arithmetic mean of HGB hemoglobin content [3, 12]: 8.47 g/dL | Arithmetic mean of RBC red blood cell count [3, 12]: 6.34 M/μL | Arithmetic mean of HCT hematocrit [3, 13]: 40.05% | Arithmetic mean of HGB hemoglobin content [3, 13]: 11.63 g/dL | Arithmetic mean of RBC red blood cell count [3, 13]: 8.88 M/μL | Arithmetic mean of HCT hematocrit [3, 14]: 41.45% | Arithmetic mean of HGB hemoglobin content [3, 14]: 12.10 g/dL | Arithmetic mean of RBC red blood cell count [3, 14]: 9.09 M/μL
